According to publication PMC9306950 (Clinical Pharmacology in Drug Development, 2022):
Like-named read-outs stand apart in the source and are kept apart here. Values belong to the compound of their own block, whether it stands above or below them.

What was measured:
[1] = for CL/F lower in the presence of roxadustat: concomitant roxadustat vs statin alone; for increase of AUCinf / increase of Cmax: statin dosed concomitantly with roxadustat vs statin alone
clinical = settings: human, in vivo; for AUC(0-inf): AUCinf
[2] = Safety: treatment-emergent adverse events in study CL-0537; assay type: in vivo, healthy subjects; settings: for TEAE headache, subjects / TEAE nasopharyngitis, subjects: CL-0537; for number of TEAEs considered related to the study drug / subjects with TEAEs considered related to the study drug: investigator assessment
[3] = Safety: treatment-emergent adverse events in study CL-0538; assay type: in vivo, healthy subjects; settings: for TEAE dry mouth, subjects / TEAE headache, subjects: CL-0538; for number of TEAEs considered possibly related to the study drug / subjects with TEAEs considered possibly related to the study drug: investigator assessment
[4] = plasma
[5] = for AUC(0-inf) / Cmax / half-life / Tmax / AUC(0-t): human, in vivo; for AUC(0-inf): AUCinf; for AUC(0-t): AUClast
CYP2C8 = settings: read-out: inhibition constant (Ki); in vitro; cited from earlier work
[6] = cited from earlier work
[7] = Safety and tolerability across the 3 studies; assay type: in vivo, healthy subjects; settings: roxadustat 200 mg, observation periods of the 3 studies
[8] = Safety: treatment-emergent adverse events in study CL-0541; assay type: in vivo, healthy subjects
[9] = statin + roxadustat 200 mg (steady state), concomitant, plasma
[10] = statin + roxadustat / statin alone
[11] = statin alone, single oral dose, plasma
[12] = po, mean (SD), statin alone, single oral dose, plasma
[13] = atorvastatin 40 mg + roxadustat 200 mg, concomitant
[14] = GLS mean for statin alone, statin alone
[15] = po, median (min-max), statin alone, single oral dose, plasma
[16] = 40 mg, mean (SD), simvastatin 40 mg alone, plasma
[17] = mean (SD), simvastatin administered 2 hours before roxadustat, plasma
[18] = mean (SD), simvastatin administered 4 hours after roxadustat, plasma
[19] = mean (SD), simvastatin administered 10 hours after roxadustat, plasma
[20] = median (min-max), simvastatin administered 2 hours before roxadustat, plasma
[21] = median (min-max), simvastatin administered 4 hours after roxadustat, plasma
[22] = median (min-max), simvastatin administered 10 hours after roxadustat, plasma
[23] = simvastatin administered 2 hours before roxadustat
[24] = simvastatin administered 4 hours after roxadustat
[25] = simvastatin administered 10 hours after roxadustat

SMILES: CC(C)c1nc(N(C)S(C)(=O)=O)nc(-c2ccc(F)cc2)c1/C=C/[C@@H](O)C[C@@H](O)CC(=O)O [Rosuvastatin]
CL/F lower in the presence of roxadustat [1]: 66%
AUCinf, GLS mean for statin alone ([1]; human, in vivo): 62 878 pg • h/mL
AUCinf, mean (SD) ([1]; human, in vivo): 196 187 (95 367) pg • h/mL
AUCinf, median (min-max) ([1]; human, in vivo): 177 873 (48 036–503 953) pg • h/mL
AUClast, mean (SD) ([1]; human, in vivo): 192 156 (95 253) pg • h/mL
AUClast, median (min-max) ([1]; human, in vivo): 173 565 (43 917–498 457) pg • h/mL
Cmax, mean (SD) ([1]; human, in vivo): 22 980 (12 787) pg/mL
Cmax, median (min-max) ([1]; human, in vivo): 19 811 (4059–58 463) pg/mL
tlag, mean (SD) ([1]; human, in vivo): 0 (0.0) h
tlag, median (min-max) ([1]; human, in vivo): 0 (0–0) h
AUCinf, mean (SD) ([1]; human, in vivo, po): 67 613 (33 727) pg • h/mL
AUCinf, median (min-max) ([1]; human, in vivo, po): 57 187 (21 336–165 242) pg • h/mL
AUClast, mean (SD) ([1]; human, in vivo, po): 61 459 (34 796) pg • h/mL
AUClast, median (min-max) ([1]; human, in vivo, po): 54 017 (0–159 223) pg • h/mL
Cmax, mean (SD) ([1]; human, in vivo, po): 4939 (2991) pg/mL
Cmax, median (min-max) ([1]; human, in vivo, po): 4062 (0–13 775) pg/mL
tlag, mean (SD) ([1]; human, in vivo, po): 0 (0.0) h
tlag, median (min-max) ([1]; human, in vivo, po): 0 (0–0) h
CL/F, mean (SD) [1, 9]: 63.4 (35.8) L/h
CL/F, median (min-max) [1, 9]: 56.22 (19.8–208) L/h
AUCinf, GLS mean ratio (%) [1, 10]: 292.55%
Cmax, GLS mean ratio (%) [1, 10]: 447.33%
CL/F, mean (SD) [1, 11]: 185.3 (91.3) L/h
CL/F, median (min-max) [1, 11]: 174.9 (60.5–469) L/h
tmax, median (min-max) [1, 11]: 4.00 (3.00–6.02) h
increase of AUCinf [1]: 2.93 fold
increase of Cmax [1]: 4.47 fold
AUC(0-inf) (clinical; GLS mean for roxadustat + statin): 184 ng·h/mL
Cmax (clinical; GLS mean for statin alone): 4.65 ng/mL
half-life (clinical; po, t1/2, mean (SD), statin alone, single oral dose, plasma): 15.5 h
half-life (clinical; po, t1/2, median (min-max), statin alone, single oral dose, plasma): 15.2 h
Tmax (clinical; [12]): 3.9 h
TEAE headache, subjects [2]: 0.0%
TEAE nasopharyngitis, subjects [2]: 0.0%
number of TEAEs considered related to the study drug [2]: 2
subjects with TEAEs considered related to the study drug [2]: 2 (7.1%) n (%)

SMILES: CC(C)c1c(C(=O)Nc2ccccc2)c(-c2ccccc2)c(-c2ccc(F)cc2)n1CC[C@@H](O)C[C@@H](O)CC(=O)O [Atorvastatin]
TEAE dry mouth, subjects [3]: 0.0%
TEAE headache, subjects [3]: 4.2%
number of TEAEs considered possibly related to the study drug [3]: 2
subjects with TEAEs considered possibly related to the study drug [3]: 2 (8.3%) n (%)
tlag, mean (SD) [4, 13]: 0 (0.0) h
tlag, median (min-max) [4, 13]: 0 (0–0) h
tlag, mean (SD) ([4]; atorvastatin 40 mg alone): 0 (0.0) h
tlag, median (min-max) ([4]; atorvastatin 40 mg alone): 0 (0–0) h

tlag, mean (SD) [1, 9]: 0.29 (0.35) h
tlag, median (min-max) [1, 9]: 0 (0–1.02) h
tlag, mean (SD) [1, 11]: 0.47 (0.31) h
tlag, median (min-max) [1, 11]: 0.50 (0–1.00) h
increase of AUCinf [1]: 1.85 fold
increase of Cmax [1]: 2.76 fold
AUC(0-inf) (clinical; [14]): 24.6 ng·h/mL
Cmax (clinical; [14]): 1.86 ng/mL
Cmax (clinical; [12]): 2.17 ng/mL
Cmax (clinical; [15]): 2.06 ng/mL
half-life (clinical; po, t1/2, mean (SD)): 6.28 h
half-life (clinical; po, t1/2, median (min-max)): 5.78 h
Tmax (clinical; [12]): 5.7 h
Tmax (clinical; [15]): 4.02 h
half-life (clinical; t1/2, mean (SD)): 5.98 h
half-life (clinical; t1/2, median (min-max)): 5.27 h
AUC(0-inf) [5, 16]: 24.3 ng·h/mL
AUC(0-inf) ([5]; 40 mg, median (min-max), simvastatin 40 mg alone, plasma): 21.2 ng·h/mL
Cmax [5, 16]: 2.12 ng/mL
half-life ([5]; 40 mg, t1/2, mean (SD), simvastatin 40 mg alone, plasma): 7 h
half-life ([5]; 40 mg, t1/2, median (min-max), simvastatin 40 mg alone, plasma): 6.36 h
Tmax [5, 16]: 5.38 h
AUC(0-inf) ([5]; GLS mean for simvastatin alone, simvastatin alone): 21 ng·h/mL
AUC(0-inf) [5, 17]: 48.7 ng·h/mL
AUC(0-inf) [5, 18]: 84.7 ng·h/mL
AUC(0-inf) [5, 19]: 59.4 ng·h/mL
AUC(0-inf) [5, 20]: 41 ng·h/mL
AUC(0-inf) [5, 21]: 70.3 ng·h/mL
AUC(0-inf) [5, 22]: 50.5 ng·h/mL
AUC(0-t) [5, 17]: 44.7 ng·h/mL
AUC(0-t) [5, 18]: 82.8 ng·h/mL
AUC(0-t) [5, 19]: 57.4 ng·h/mL
AUC(0-t) [5, 20]: 38.2 ng·h/mL
AUC(0-t) [5, 21]: 68.9 ng·h/mL
AUC(0-t) [5, 22]: 49.8 ng·h/mL
Cmax [5, 17]: 4.99 ng/mL
Cmax [5, 18]: 12.8 ng/mL
Cmax [5, 19]: 7.13 ng/mL
Cmax [5, 20]: 4.5 ng/mL
Cmax [5, 21]: 11.6 ng/mL
Cmax [5, 22]: 6.1 ng/mL
half-life ([5]; t1/2, mean (SD), simvastatin administered 2 hours before roxadustat, plasma): 4.6 h
half-life ([5]; t1/2, mean (SD), simvastatin administered 4 hours after roxadustat, plasma): 3.75 h
half-life ([5]; t1/2, mean (SD), simvastatin administered 10 hours after roxadustat, plasma): 4.16 h
half-life ([5]; t1/2, median (min-max), simvastatin administered 2 hours before roxadustat, plasma): 4.27 h
half-life ([5]; t1/2, median (min-max), simvastatin administered 4 hours after roxadustat, plasma): 3.45 h
Tmax [5, 17]: 5.55 h
Tmax [5, 18]: 4.01 h
Tmax [5, 19]: 4.4 h
Tmax [5, 20]: 6 h
Tmax [5, 22]: 4.01 h
AUClast, mean (SD) ([5]; simvastatin 40 mg alone, plasma): 22.17 (11.98) ng • h/mL
tmax, median (min-max) ([5]; simvastatin administered 4 hours after roxadustat, plasma): 4.00 (2.02–6.00) h
SMILES: CCC(C)(C)C(=O)O[C@H]1C[C@@H](C)C=C2C=C[C@H](C)[C@H](CC[C@@H](O)C[C@@H](O)CC(=O)O)[C@H]21 [Simvastatin acid]

SMILES: Cc1nc(C(=O)NCC(=O)O)c(O)c2ccc(Oc3ccccc3)cc12 [Roxadustat]
TEAE dry mouth, subjects [3]: 8.3%
TEAE headache, subjects [3]: 4.2%
number of TEAEs considered possibly related to the study drug [3]: 3
subjects with TEAEs considered possibly related to the study drug [3]: 2 (8.3%) n (%)
TEAE headache, subjects [2]: 7.1%
TEAE nasopharyngitis, subjects [2]: 0.0%
number of TEAEs considered related to the study drug [2]: 4
subjects with TEAEs considered related to the study drug [2]: 4 (14.3%) n (%)
Ki (CYP2C8): 16 µM
terminal elimination half-life (t1/2) ([6]; after single-dose oral administration, healthy subjects): ≈ 12 hours
time to maximum plasma concentrations (Cmax) after dosing ([6]; fasted state): ≤ 2 h
time to reach maximum plasma concentration (Cmax) ([6]; oral, healthy subjects): ≤ 2 h
deaths, serious TEAEs, AEs leading to discontinuation [7]: did not result in any deaths, serious TEAEs, or AEs leading to discontinuation of study drug

SMILES: CCC(C)(C)C(=O)O[C@H]1C[C@@H](C)C=C2C=C[C@H](C)[C@H](CC[C@@H]3C[C@@H](O)CC(=O)O3)[C@H]21 [Simvastatin]
CL/F lower in the presence of roxadustat [1]: 40%
increase of Cmax [1]: 1.87 fold
TEAE headache, subjects [8, 23]: 16.7%
TEAE incidence: Overall [8, 23]: 9 (37.5%) n (%)
total number of TEAEs [8, 23]: 12
TEAE headache, subjects [8, 24]: 4.2%
TEAE incidence: Overall [8, 24]: 6 (25.0%) n (%)
number of TEAEs of dizziness possibly related to the study drug [8, 24]: 1
subjects with TEAE of dizziness possibly related to the study drug [8, 24]: 1 (4.2%) n (%)
total number of TEAEs [8, 24]: 8
TEAE headache, subjects [8, 25]: 8.3%
TEAE incidence: Overall [8, 25]: 4 (16.7%) n (%)
number of TEAEs of dizziness possibly related to the study drug [8, 25]: 2
subjects with TEAE of dizziness possibly related to the study drug [8, 25]: 1 (4.2%) n (%)
total number of TEAEs [8, 25]: 9
TEAE headache, subjects ([8]; simvastatin administered alone): 8.3%
TEAE incidence: Overall ([8]; simvastatin alone): 5 (20.8%) n (%)
total number of TEAEs ([8]; simvastatin alone): 6
TEAE headache, subjects [2]: 0.0%
TEAE nasopharyngitis, subjects [2]: 0.0%
lower mean CL/F ([5]; simvastatin 2 hours before roxadustat): 42%
lower mean CL/F ([5]; simvastatin 4 hours after roxadustat): 51%
lower mean CL/F ([5]; simvastatin 10 hours after roxadustat): 46%
